13 compounds from ChEMBL document CHEMBL4130462, “Natural isoflavone biochanin A as a template for the design of new and potent 3-phenylquinolone efflux inhibitors against Mycobacterium avium” (Eur J Med Chem, 2017) can be followed below.

The test system of series [1] is Mycobacterium avium. Briefly: Antimycobacterial activity against Mycobacterium avium isolate MAV1 assessed as reduction in bacterial viability incubated for 3 days by MTT assay. It counts as organism-based. The following applies: in vitro, 72 h.
The test system of series [2] is Mycobacterium avium. The following applies: 72 h.
Description: Antimycobacterial activity against Mycobacterium avium 104 assessed as reduction in bacterial viability incubated for 3 days by MTT assay
Series [3] concerns Mycolicibacterium smegmatis. The experiment in a line: Antimycobacterial activity against Mycobacterium smegmatis str. MC2 155 assessed as reduction in bacterial viability incubated for 3 days by MTT assay. It counts as organism-based. The following applies: 72 h.
Series [4] has as its system Mycobacterium avium. The experiment in a line: Antimycobacterial activity against Mycobacterium avium isolate MAV2 assessed as reduction in bacterial viability incubated for 3 days by MTT assay. The following applies: 72 h. The class given is organism-based. Background: Tetrazolium assays rely on reduction of a dye to a coloured formazan, in cell work by metabolically active cells.

The nature of series [5]: Cytotoxicity in human monocyte-derived macrophages assessed as reduction in cell viability incubated for 3 days by alamar blue dye based assay. The settings on record: for CC50 at 72 h: human monocyte-derived macrophages; for MTC: macrophage cell line, 72 h. Set-up: species or system Macrophage cell line. A general note: The colour change of resazurin is a common sign of viable cells or microbes.

The test system of series [6] is Mycobacterium avium. Briefly: Antimycobacterial activity against Mycobacterium avium isolate MAV4 assessed as reduction in bacterial viability incubated for 3 days by MTT assay. The class given is organism-based. The following applies: 72 h.
In series [7] the test system is Mycobacterium avium. The experiment in a line: Antimycobacterial activity against Mycobacterium avium ATCC 25291 assessed as reduction in bacterial viability incubated for 3 days by MTT assay. The class given is organism-based. The following applies: mycobacterium avium subsp. avium atcc 25291, 72 h.
The test system of series [8] is Mycobacterium avium. The following applies: in vivo, 72 h.
Description: Antimycobacterial activity against Mycobacterium avium 104 mc'2 4 assessed as reduction in bacterial viability incubated for 3 days by MTT assay
The test system of series [9] is Mycobacterium avium. The settings on record: in vivo, 72 h. The source holds these as a separate data set.
Description: Antimycobacterial activity against Mycobacterium avium 104 mc'2 3 assessed as reduction in bacterial viability incubated for 3 days by MTT assay
In series [10] the test system is Mycobacterium avium. Briefly: Antimycobacterial activity against Mycobacterium avium isolate MAV3 assessed as reduction in bacterial viability incubated for 3 days by MTT assay. It counts as organism-based. The settings on record: 72 h.
The subject of series [11] is Mycolicibacterium smegmatis MC2 155. The experiment in a line: Inhibition of multidrug resistance efflux pump in Mycobacterium smegmatis str. MC2 155 assessed as increase in EtBr accumulation by measuring relative final fluorescence at <= 1/2 times MIC incubated for 60 mins by real-time fluorometry relative to control.
Series [12] deals with Mycobacterium avium. The experiment in a line: Inhibition of multidrug resistance efflux pump in Mycobacterium avium 104 assessed as increase in EtBr accumulation by measuring relative final fluorescence at 1/4 times MIC incubated for 60 mins by real-time fluorometry relative to control.
Series [13] relates to Mycobacterium avium. The experiment in a line: Inhibition of multidrug resistance efflux pump in Mycobacterium avium 104 mc'2 3 assessed as increase in EtBr accumulation by measuring relative final fluorescence at 1/4 times MIC incubated for 60 mins by real-time fluorometry relative to control.
In series [14] the test system is Mycobacterium avium. The experiment in a line: Inhibition of multidrug resistance efflux pump in Mycobacterium avium 104 mc'2 4 assessed as increase in EtBr accumulation by measuring relative final fluorescence at 1/4 times MIC incubated for 60 mins by real-time fluorometry relative to control.

Values after ≈ are worked out from the molar mass of the structure shown. Where only a bound is given, the exact number is not on record here.

The term CC50 denotes the concentration giving 50% cytotoxicity. In the case of `COc1ccc(CCN(C)CCCC(C#N)(c2ccc(OC)c(OC)c2)C(C)C)cc1OC` (stereo not given), the MIC with Mycobacterium avium [1] came to 400 µg/mL (≈ 880 µM); in the series with Mycobacterium avium [2] it was 800 µg/mL (≈ 1760 µM); in series [3] it was 800 µg/mL (≈ 1760 µM); in the series on Mycobacterium avium [4] it was 400 µg/mL (≈ 880 µM); in the series on Mycobacterium avium [6] it was 800 µg/mL (≈ 1760 µM); with Mycobacterium avium [7], 800 µg/mL (≈ 1760 µM). The MIC against Mycobacterium avium [8], with Mycobacterium avium [9] and in the series with Mycobacterium avium [10] was 800 µg/mL (≈ 1760 µM) throughout. Besides, the CC50 at 72 h in series [5] came to 117 µM. The MTC in series [5] amounted to 10 µM.

With `CCCOc1ccc(-c2cn(CCCN(C)C)c3ccccc3c2=O)cc1`, the Ratio in series [11] came out at 1.38. Further, the MIC (against Mycobacterium avium [2]; in series [3]; with Mycobacterium avium [8]; in the series on Mycobacterium avium [9]) was > 256 µg/mL in each case.

Take `CCCOc1ccc(-c2cn(CCN3CCNCC3)c3ccccc3c2=O)cc1`: the Ratio in series [11] is 1.42. The MIC (in the series with Mycobacterium avium [2]; in [3]; against Mycobacterium avium [8]; with Mycobacterium avium [9]) was > 256 µg/mL each time.

For the compound `CC[C@H]1OC(=O)[C@H](C)[C@@H](O[C@H]2C[C@@](C)(OC)[C@@H](O)[C@H](C)O2)[C@H](C)[C@@H](O[C@@H]2O[C@H](C)C[C@H](N(C)C)[C@H]2O)[C@](C)(O)C[C@@H](C)CN(C)[C@H](C)[C@@H](O)[C@]1(C)O` [AZITHROMYCIN], the MIC was 256 µg/mL (≈ 342 µM) in the series on Mycobacterium avium [1]; > 512 µg/mL against Mycobacterium avium [2]; > 512 µg/mL in the series with Mycobacterium avium [4]; 256 µg/mL (≈ 342 µM) in the series on Mycobacterium avium [6]; 64 µg/mL (≈ 85.4 µM) with Mycobacterium avium [7]; > 512 µg/mL with Mycobacterium avium [8]. Besides, the MIC was > 512 µg/mL against Mycobacterium avium [9] and 256 µg/mL (≈ 342 µM) in the series on Mycobacterium avium [10].

As to `CC1COc2c(N3CCN(C)CC3)c(F)cc3c(=O)c(C(=O)O)cn1c23` (stereo not given) [OFLOXACIN], the MIC in the series on Mycobacterium avium [1] stood at 4 µg/mL (≈ 11.1 µM); in the series with Mycobacterium avium [2], 16 µg/mL (≈ 44.3 µM); with Mycobacterium avium [4] it was 4 µg/mL (≈ 11.1 µM); in the series with Mycobacterium avium [6] it was 16 µg/mL (≈ 44.3 µM); in the series with Mycobacterium avium [7], 64 µg/mL (≈ 177 µM); in the series on Mycobacterium avium [8], 16 µg/mL (≈ 44.3 µM). In addition, the MIC with Mycobacterium avium [9] and in the series with Mycobacterium avium [10] was 16 µg/mL (≈ 44.3 µM) in each case.

Consider `CC[n+]1c(-c2ccccc2)c2cc(N)ccc2c2ccc(N)cc21.[Br-]` [HOMIDIUM BROMIDE], for which the MIC stood at 25 µg/mL in the series with Mycobacterium avium [1]; 25 µg/mL in the series on Mycobacterium avium [2]; 12.5 µg/mL in the series on Mycobacterium avium [4]; 50 µg/mL in the series on Mycobacterium avium [6]; 50 µg/mL in the series with Mycobacterium avium [7]; 25 µg/mL against Mycobacterium avium [8]. In addition, the MIC is 25 µg/mL against Mycobacterium avium [9] and 12.5 µg/mL in the series on Mycobacterium avium [10].

As to `CCCOc1ccc(-c2c[nH]c3ccccc3c2=O)cc1`, the MIC result (with Mycobacterium avium [2]; in [3]; against Mycobacterium avium [8]; against Mycobacterium avium [9]) was “Nd(Insoluble)” throughout.

As for `CCCOc1ccc(-c2cn(CCN3CCN(Cc4ccccc4)CC3)c3ccccc3c2=O)cc1`, the Ratio is 3.19 in the series on Mycobacterium avium [12], 2.93 in the series on Mycobacterium avium [13] and 1.96 in the series on Mycobacterium avium [14]. Moreover, the MIC in the series on Mycobacterium avium [2] was 256 µg/mL (≈ 532 µM); in [3] it was 64 µg/mL (≈ 133 µM); in the series on Mycobacterium avium [8], 256 µg/mL (≈ 532 µM); in the series with Mycobacterium avium [9], 256 µg/mL (≈ 532 µM).

For the compound `CC[C@H]1OC(=O)[C@H](C)[C@@H](O[C@H]2C[C@@](C)(OC)[C@@H](O)[C@H](C)O2)[C@H](C)[C@@H](O[C@@H]2O[C@H](C)C[C@H](N(C)C)[C@H]2O)[C@](C)(O)C[C@@H](C)C(=O)[C@H](C)[C@@H](O)[C@]1(C)O` [ERYTHROMYCIN], the MIC in the series on Mycobacterium avium [4] is > 512 µg/mL; with Mycobacterium avium [6], 512 µg/mL (≈ 698 µM); against Mycobacterium avium [8], > 512 µg/mL; against Mycobacterium avium [9], > 512 µg/mL; in the series on Mycobacterium avium [10], 512 µg/mL (≈ 698 µM).

As for `COc1ccc(-c2coc3cc(O)cc(O)c3c2=O)cc1` [BIOCHANIN], the Ratio in series [11] was found to be 0.63. Also, the MIC (in the series on Mycobacterium avium [2]; in [3]; against Mycobacterium avium [8]; in the series with Mycobacterium avium [9]) was > 64 µg/mL throughout. Moreover, the CC50 at 72 h in series [5] amounted to 50.4 µM. In addition, the MTC in series [5] was 20 µM.

Take `CCCOc1ccc(-c2cn(C)c3ccccc3c2=O)cc1`: the MIC in series [3] was determined as 256 µg/mL (≈ 873 µM).

With `CC[C@H]1OC(=O)[C@H](C)[C@@H](O[C@H]2C[C@@](C)(OC)[C@@H](O)[C@H](C)O2)[C@H](C)[C@@H](O[C@@H]2O[C@H](C)C[C@H](N(C)C)[C@H]2O)[C@](C)(OC)C[C@@H](C)C(=O)[C@H](C)[C@@H](O)[C@]1(C)O` [CLARITHROMYCIN], the MIC is 4 µg/mL (≈ 5.35 µM) in the series on Mycobacterium avium [1]; 8 µg/mL (≈ 10.7 µM) in the series on Mycobacterium avium [2]; > 1024 µg/mL in the series with Mycobacterium avium [4]; 8 µg/mL (≈ 10.7 µM) with Mycobacterium avium [6]; 8 µg/mL (≈ 10.7 µM) in the series on Mycobacterium avium [7]; > 512 µg/mL in the series on Mycobacterium avium [8]. Further, the MIC in the series with Mycobacterium avium [9] is > 512 µg/mL; in the series on Mycobacterium avium [10], 16 µg/mL (≈ 21.4 µM).

`O=C(O)c1cn(C2CC2)c2cc(N3CCNCC3)c(F)cc2c1=O` [CIPROFLOXACIN]: the MIC came to 2 µg/mL (≈ 6.04 µM) in the series with Mycobacterium avium [1]; 16 µg/mL (≈ 48.3 µM) with Mycobacterium avium [2]; 8 µg/mL (≈ 24.1 µM) with Mycobacterium avium [4]; 32 µg/mL (≈ 96.6 µM) in the series with Mycobacterium avium [6]; 32 µg/mL (≈ 96.6 µM) with Mycobacterium avium [7]; 16 µg/mL (≈ 48.3 µM) against Mycobacterium avium [8]. Further, the figures for the MIC in the series with Mycobacterium avium [9] and in the series with Mycobacterium avium [10] were 16 µg/mL (≈ 48.3 µM) and 32 µg/mL (≈ 96.6 µM), respectively.
